Experimental data from patent publication US9073965B2, “Adiponectin receptor agonists and methods of use” (TEMPLE UNIVERSITY—OF THE COMMONWEALTH SYSTEM OF HIGHER …, priority 2011, dated 2015).
Non-standard residues stand in square brackets, D forms with d. Residues, ends and D or L forms follow the SMILES beside them. Nva = CCC[C@H](N)C(=O)O; βAla = NCCC(=O)O

Tests used:
[1] = system: MCF-7 breast cancer cells
Method: The MCF-7 breast cancer cell line was obtained from ATCC (Manassas, Va.) and routinely grown in DMEM:F12 plus 5% calf serum (Cellgro Mediatech, Manassas, Va.) at 37° C., 5% CO2. For screening experiments, MCF-7 cells were plated in 24-well plates at the concentration of 30,000 cells/well. After 12 h of culture in the growth medium, the cells were synchronized in serum-free medium (SFM) (DMEM:F12 supplemented with 0.42 g/mL bovine serum albumin, 1 mM FeSO4 and 2 mM L-glutamine) for 24 h and then shifted back to the full growth medium containing either gAd (Phoenix Secretomics, Burlingame, Calif.) at 50 ng/mL, individual peptides, or no test compounds for 24 h. At conclusion of proliferation assays, the cells were counted under the microscope with trypan-blue exclusion. Each experiment was performed in triplicate and repeated at least three times.

LN18 glioblastoma cells = experiment: Cell growth experiments, cell counting; assay type: cell-based
Method: (§1) Biological activity of the peptides was first assessed using MCF-7 breast cancer cells that express AdipoR1. Arditi J D, Venihaki M, Karalis K P, Chrousos G P Horm Metab Res 2007, 39(1):9-13. The MCF-7 breast cancer cell line was obtained from ATCC (Manassas, Va.) and routinely grown in DMEM:F12 plus 5% calf serum (Cellgro Mediatech, Manassas, Va.) at 37° C., 5% CO2. For screening experiments, MCF-7 cells were plated in 24-well plates at the concentration of 30,000 cells/well. After 12 h of culture in the growth medium, the cells were synchronized in serum-free medium (SFM) (DMEM:F12 supplemented with […] bovine serum albumin, 1 mM FeSO4 and 2 mM L-glutamine) for 24 h and then shifted back to the full growth medium containing either gAd (Phoenix Secretomics, Burlingame, Calif.) at 50 ng/mL, individual peptides, or no test compounds for 24 h. At conclusion of proliferation assays, the cells were counted under the microscope with trypan-blue exclusion. Each experiment was performed in triplicate and repeated at least three times. ADP 25-β-AlaNH2, ADP 91-β-AlaNH2, ADP 157-β-AlaNH2, ADP 223-β-AlaNH2, ADP 289-β-AlaNH2 and ADP 355-β-AlaNH2 were solubilized at 65° C. for 30 min and were further purified by RP-HPLC and screened together with the individually synthesized adiponectin peptides at the exact concentration of 50 ng/mL.
(§2) The effects of the selected peptide ADP 355-NH2 on cell proliferation were tested in breast cancer cell lines (MCF-7, MDA-MB-231) and in glioblastoma cells (LN18), all obtained from ATCC and routinely cultured as described previously. Otvos L, Jr., et al. European J Cancer 2011, 47(10):1578-1584. Riolfi M, et al. Brain Pathol 2010, 20(2):481-489. Bartucci M, et al. Cancer Res 2001, 61(18):6747-6754. The peptide was tested at 10 pM-100 μM concentrations under conditions described above under peptide screening.

[2] = system: MDA-MB-231 breast cancer cells; experiment: Cell growth experiments, cell counting; assay type: cell-based; conditions: MDA-MB-231 cells
Method: as §1, §2

AMPK = experiment: Signaling analysis by Western blot: AMPK phosphorylation; assay type: cell-based
Method: (§3) The analysis was done using MCF-7 and MDA-MB-231 breast cancer cells and in LN18 glioblastoma cells. The cells at 70-80% confluence were shifted to SFM for 24 h, then SFM was removed, the cultures were washed 2× with PBS, placed in normal growth medium for 1 h, and then treated with ADP 355-NH2 at 100 nM (MCF-7 cells) or 10 μM (MDA-MB-231 and LN 18 cells) concentration for 0-60 min, while gAd at 50 ng/mL was applied for 60 min only. Untreated cells were used as negative control. After the treatment, cells were lysed as previously described and 100 μg of proteins were analyzed by Western blot for the expression of phosphorylated (p) and total forms of several signaling molecules. Bartella V, et al. Cancer Res 2008, 68(12):4919-4927. Garofalo C, et al. Clin Cancer Res 2004, 10(10):6466-6475. The following primary antibodies (Abs) from Cell Signaling (Danvers, Mass.) were used: 1) pAMPK alpha (T172) D79.5E rabbit mAb 1: 750; 2) total AMPK alpha antibody rabbit mAb 1:1000 in; 3) p44/42 MAPK (T202/Y204) rabbit mAb 1:1000; 4) total 44/42 MAP kinase antibody rabbit mAb 1:1000; 5) pStat3 (Y705) D3A7 rabbit mAb 1: 500; 6) total Stat3 79D7 rabbit mAb 1:2000; 7) pAkt (Ser 473) rabbit mAb 1:1000; 8) total Akt rabbit mAb 1:1000; 9) AdipoR1 rabbit purified anti-serum 1:500 (Phoenix Secretomics). Protein loading was verified by evaluating the expression of either a constitutive enzyme glyceraldehyde-3-phosphate dehydrogenase (GAPDH) using 6C51 mAbs 1:1000 (Santa Cruz Biotechnology, CA, USA) or alpha-actin using the actin I-19 goat polyclonal Ab (Santa Cruz) 1: 200. The following secondary Abs (Santa Cruz) were used 1) donkey anti-goat IgG-HRP; 2) goat anti-mouse IgG-HRP; 3) goat anti-rabbit IgG-HRP, all applied at 1:1000 dilution.

ERK1/2 = experiment: Signaling analysis by Western blot: ERK1/2 phosphorylation; assay type: cell-based
Method: as §3, with “Protein loading was verified by evaluating the expression of either a constitutive enzyme glyceraldehyde-3-phosphate dehydrogenase (GAPDH) using 6C51 mAbs 1:1000 (Santa Cruz Biotechnology, CA, USA) or alpha-actin using the actin I-19 goat polyclonal Ab (Santa Cruz) 1: 200. The following secondary Abs (Santa Cruz) were used 1) donkey anti-goat IgG-HRP; 2) goat anti-mouse IgG-HRP; 3) goat anti-rabbit IgG-HRP, all applied at 1:1000 dilution.” left out

Akt = experiment: Signaling analysis by Western blot: Akt; assay type: cell-based
Method: as §3

STAT3 = experiment: Signaling analysis by Western blot: STAT3 phosphorylation; assay type: cell-based; conditions: for STAT3 phosphorylation: 10 μM
Method: as §3

[3] = Peptide stability in mouse serum; assay type: in vitro ADME; conditions: 25% aqueous mouse serum, calculated from degradation rate in 25% aqueous serum, 37° C., data not shown
Method: (§4) Sixty μg of ADP 355-NH2 were dissolved in 100 μL water, and 10 μL aliquots were mixed with 100 μL of freshly drawn mouse blood. After 30 min of incubation at 37° C. the cells were centrifuged at 10,000×g. Fifty μL serum was mixed with 50 μL phosphate buffered saline pH 6.8 (PBS), and the serum proteins were precipitated by addition of 45 μL aqueous 15% trichloroacetic acid (TCA) for 10 min at 4° C. After centrifugation at 12,000×g the supernatant was neutralized with 0.1 M aqueous sodium hydroxide and 0.5 μL of this solution was mixed with 0.5 μL α-cyano-4-hydroxycinnamic acid (4 mg/mL in 60% aqueous acetonitrile containing 0.1% TFA) as matrix on a sample plate. Analysis was performed on a MALDI time-of-flight tandem mass spectrometer (MALDITOF/TOF-MS, 4700 proteomic analyzer, Applied Biosystems, Weiterstadt, Germany). Additionally, the neutralized supernatant was loaded on a Jupiter C18 RP-HPLC column (4.6 mm internal diameter, 150 mm length, 5 μm particle size, 30 nm pore size; Phenomenex) that had previously been calibrated with known amounts of peptide ADP 355-NH2 dissolved in PBS. Absorbance was measured at 214 nm. Peptide ADP 355-NH2 was incubated at 37° C. with 25% aqueous mouse serum at a final concentration of 150 μg/mL. After 0, 15, 30, 60, 120, and 240 min 95 μL aliquots were mixed with 25 μL 15% aqueous TCA and were incubated for 10 min at 4° C. […]

[4] = Peptide stability in whole mouse blood; assay type: in vitro ADME; conditions: after 30 min at 37° C., mass spectroscopy
Method: as §4

female CBA/J mice = experiment: In vivo toxicity, bolus ip; conditions: for Kidney weight / Kidney weight relative to total weight (%) / Liver weight / Liver weight relative to total weight (%) / Spleen weight: day 5
Excerpt: On day 5 the mice were killed by CO2 inhalation and the potential peptide elimination organs, the livers, spleens and kidneys were removed and weighed.

[5] = LN 18 cells, compared with 1 μM
[6] = MDA-MB-231 cells, 10 μM, 0-60 min
[7] = four days after ip administration, vs untreated

CC[C@H](C)[C@H](NC(=O)[C@@H](N)CC(N)=O)C(=O)N1CCC[C@H]1C(=O)NCC(=O)N[C@@H](CC(C)C)C(=O)N[C@@H](Cc1ccc(O)cc1)C(=O)N[C@@H](Cc1ccc(O)cc1)C(=O)N[C@@H](Cc1ccccc1)C(=O)N[C@@H](C)C(=O)N[C@@H](Cc1ccc(O)cc1)C(=O)NCCC(N)=O [ADP 25-β-AlaNH2, Asn-Ile-Pro-Gly-Leu-Tyr-Tyr-Phe-Ala-Tyr-β-AlaNH2] (H-NIPGLYYFAY[βAla]-NH2; N-terminus assumed)
biological activity in cancer cell growth inhibition assays ([1]; 50 ng/mL): fully active
Cytostatic Activity of Original Peptide vs. gAd (% Increase) ([1]; MCF-7 cells, 50 ng/mL, relative to 50 ng/mL gAd (baseline)): 11%

CCC[C@H](NC(=O)[C@@H]1CCCN1C(=O)[C@@H](NC(=O)[C@H](N)CC(N)=O)[C@@H](C)CC)C(=O)N[C@@H](CC(C)C)C(=O)N[C@@H](Cc1ccc(O)cc1)C(=O)N[C@H](CO)C(=O)N[C@@H](Cc1ccccc1)C(=O)N[C@@H](C)C(=O)N[C@H](CO)C(N)=O [ADP 355-NH2, D-Asn-Ile-Pro-Nva-Leu-Tyr-D-Ser-Phe-Ala-D-Ser-NH2] (H-[dN]IP[Nva]LY[dS]FA[dS]-NH2)
cytostatic effect at maximal effective doses compared with gAd at 50 ng/mL (LN18 glioblastoma cells; LN18 cells): greater cytostatic effects
effect on normal cell growth (LN18 glioblastoma cells; LN18 cells, 10 pM-100 μM): restricted normal cell growth in a dose-dependent manner
growth inhibition at 10 μM (LN18 glioblastoma cells; [5]): further activity increase
growth inhibition at 100 μM (LN18 glioblastoma cells; [5]): less inhibitory
cytostatic effect at maximal effective doses compared with gAd at 50 ng/mL [2]: greater cytostatic effects
effect on normal cell growth ([2]; 10 pM-100 μM): restricted normal cell growth in a dose-dependent manner
growth inhibition at 10 μM ([2]; compared with 1 μM): further activity increase
growth inhibition at 100 μM ([2]; compared with 1 μM): less inhibitory
AMPK modulation (AMPK; LN18 cells, 10 μM, 0-60 min): did not modulate
phosphorylation of AMPK (AMPK; MCF-7 cells, 100 nM, at 15 and 30 min): increased
AMPK activation (AMPK; [6]): did not affect
ERK1/2 phosphorylation (ERK1/2; MCF-7 cells, 100 nM, at 60 min): decreased
ERK1/2 pathway (ERK1/2; MDA-MB-231 cells, 10 μM, at 30 and 60 min): significantly inhibited
total and phosphorylated levels of Akt (Akt; LN18 cells, 10 μM, at 15-60 min): down-regulated
activation of Akt (Akt; MCF-7 cells, 100 nM, 0-60 min): did not affect
Akt activation (Akt; [6]): did not affect
STAT3 phosphorylation (STAT3; LN18 cells, at 15-60 min): decreased
phosphorylation of STAT3 (STAT3; MCF-7 cells, 100 nM, at 15-60 min): increased
STAT3 phosphorylation (STAT3; MDA-MB-231 cells, at 15 and 30 min): transiently increased
half-life at 150 μg/mL [3]: 1.25 h
stability in whole mouse blood [4]: without noticeable degradation
concentration up to which the growth inhibitory activity was maintained ([1]; MCF-7 cells): up to 10 μM
cytostatic effect at maximal effective doses compared with gAd at 50 ng/mL ([1]; MCF-7 cells): greater cytostatic effects
peptide concentration at which the best growth inhibition was achieved ([1]; MCF-7 cells): 100 nM
effect on normal cell growth ([1]; MCF-7 cells, 10 pM-100 μM): restricted normal cell growth in a dose-dependent manner
growth inhibition at 10 pM-10 nM ([1]; MCF-7 cells, compared with 100 nM): less effective
Kidney weight (female CBA/J mice; 5 mg/kg bolus ip): 0.30 g
Kidney weight relative to total weight (%) (female CBA/J mice; 5 mg/kg bolus ip): 1.6%
Liver weight (female CBA/J mice; 5 mg/kg bolus ip): 1.02 g
Liver weight relative to total weight (%) (female CBA/J mice; 5 mg/kg bolus ip): 5.4%
Spleen weight (female CBA/J mice; 5 mg/kg bolus ip): 0.07 g
Kidney weight (female CBA/J mice; 10 mg/kg bolus ip): 0.29 g
Kidney weight relative to total weight (%) (female CBA/J mice; 10 mg/kg bolus ip): 1.6%
Liver weight (female CBA/J mice; 10 mg/kg bolus ip): 1.09 g
Liver weight relative to total weight (%) (female CBA/J mice; 10 mg/kg bolus ip): 5.9%
Spleen weight (female CBA/J mice; 10 mg/kg bolus ip): 0.06 g
Kidney weight (female CBA/J mice; 25 mg/kg bolus ip): 0.35 g
Kidney weight relative to total weight (%) (female CBA/J mice; 25 mg/kg bolus ip): 1.7%
Liver weight (female CBA/J mice; 25 mg/kg bolus ip): 1.24 g
Liver weight relative to total weight (%) (female CBA/J mice; 25 mg/kg bolus ip): 5.9%
Spleen weight (female CBA/J mice; 25 mg/kg bolus ip): 0.07 g
Kidney weight (female CBA/J mice; 50 mg/kg bolus ip): 0.31 g
Kidney weight relative to total weight (%) (female CBA/J mice; 50 mg/kg bolus ip): 1.7%
Liver weight (female CBA/J mice; 50 mg/kg bolus ip): 1.07 g
Liver weight relative to total weight (%) (female CBA/J mice; 50 mg/kg bolus ip): 6.2%
Spleen weight (female CBA/J mice; 50 mg/kg bolus ip): 0.07 g
spleen size compared with untreated control mice (female CBA/J mice; four days after ip administration): identical in size
increase of kidney size relative to total body weight (female CBA/J mice; [7]): 2%
increase of liver size relative to total body weight (female CBA/J mice; [7]): 8%
signs of systemic toxicity (tremor, head tilt, reduced activity, squinting) (female CBA/J mice; up to 50 mg/kg ip bolus, observed for 4 days): no signs of systemic toxicity
